Measurements published in paper PMC10835127, “Viruses traverse the human proteome through peptide interfaces that can be biomimetically leveraged for drug discovery” (Proceedings of the National Academy of Sciences of the …, 2024).
Read-outs that look alike come from different tables or passages of the source.

Tests used:
HCV replicon = assay type: cell-based; details: normalized mean of HCV replicon readout
HIV1 strain NL4-3 = assay type: cell-based; details: normalized mean of HIV1 replication readout
influenza A H1N1 virus = details: 48 hr post-treatment, A549
EBV = details: for EBV Norm MEAN: normalized mean of EBV replication readout
[1] = system: F. novicida (strain U112); assay type: cell-based

| Substance | HCV Norm MEAN (HCV replicon; peptide screen) | HIV1 Norm MEAN (HIV1 strain NL4-3; peptide screen) | Neuraminidase activity normalized to vehicle (influenza A H1N1 virus; 200 µM peptide) | Neuraminidase activity normalized to vehicle (influenza A H1N1 virus; 0,823 µM peptide) | Neuraminidase activity normalized to vehicle (influenza A H1N1 virus; 22,2 µM peptide) | Neuraminidase activity normalized to vehicle (influenza A H1N1 virus; 2,4691 µM peptide) | Neuraminidase activity normalized to vehicle (influenza A H1N1 virus; 7,4074 µM peptide) | Neuraminidase activity normalized to vehicle (influenza A H1N1 virus; 66,6667 µM peptide) | EBV Norm MEAN (EBV; peptide screen) | Francisella novicida Norm AUC [1] | HCV Norm MEAN (HCV replicon) | HIV1 Norm MEAN (HIV1 strain NL4-3) | EBV Norm MEAN (EBV) | enhancement of EBV signal (EBV; 20 µM peptide, Hone-1 cells, 48 h) | inhibition of PI incorporation in F. novicida infected BMDMs (in words) [1] |
| --- | --- | --- | --- | --- | --- | --- | --- | --- | --- | --- | --- | --- | --- | --- | --- |
| ACTNCYCKKCCFHCQVC [CPEP100] | 0.4928 | 0.1546 | 1,0893 | 1,092 | 1,1329 | 0,9938 | 1,0674 | 1,0274 | 1.687 | 1.04 |  |  |  |  |  |
| SLQYLALAALITPKK [CPEP46] | 0.6647 | 2.169 | 0,1529 | 0,9309 | 0,9118 | 1,043 | 1,0188 | 0,8482 | 0.9835 | 0.3644 |  |  |  |  |  |
| YRHHY [CPEP48] |  |  | 1,01 | 0,9611 | 1,0228 | 0,8941 | 0,9555 | 1,0901 |  | 0.6002 | 0.151 | 1.395 | 1.742 |  |  |
| PYQLT [CPEP58] |  |  | 0,7155 | 0,7664 | 0,8252 | 0,7115 | 0,806 | 0,8444 |  | 0.486 | 0.1961 | 1.506 | 0.8535 |  |  |
| HGCPL [CPEP33] |  |  | 0,999 | 0,7063 | 0,8914 | 0,8619 | 0,7735 | 1,0094 |  | 0.6368 | 0.1691 | 0.2429 | 1.339 |  |  |
| EVLADNLPPP [CPEP90] |  |  | 0,7518 | 0,9901 | 0,7822 | 0,9469 | 0,8328 | 0,7316 |  | 1.209 | 1.163 | 0.8397 | 1.561 |  |  |
| CPEP103: viral library peptide from HCV NS4A targeting EEF1A1 (GCVVIVGRIVLSGK) | 0.4622 | 0.2448 | 0,0978 | 0,8342 | 0,2828 | 0,8866 | 0,7276 | 0,1254 | 0.7665 | 0.5448 |  |  |  |  |  |
| HVKNG [CPEP123] |  |  | 0,78 | 0,7776 | 0,8404 | 0,7299 | 0,7535 | 0,9273 |  | 0.9754 | 0.1965 | 1.079 | 1.599 |  |  |
| EDPNEE [CPEP68] |  |  | 0,7574 | 0,7462 | 0,8576 | 0,7296 | 0,7652 | 0,95 |  | 0.6174 | 0.2553 | 1.205 | 0.4757 |  |  |
| CPEP140: peptide of the viral peptide library; sequence page not shown (RKKRRQRRRA) |  |  | 0,616 | 0,9961 | 1,0982 | 1,0685 | 0,9007 | 1,0124 |  | 0.8228 | 0.5668 | 1.188 | 1.618 |  |  |
| AAAVAFL [CPEP117] |  |  | 0,72 | 0,8345 | 0,8782 | 0,8234 | 0,8773 | 0,8792 |  | 0.9738 | 0.1615 | 0.6808 | 1.118 |  |  |
| GARASVLS [CPEP108] |  |  | 0,7289 | 0,7112 | 0,9027 | 0,8479 | 0,9625 | 0,8429 |  | 1.458 | 0.178 | 0.3412 | 0.7452 |  |  |
| GPSDSGAGRAAEDRKCL [CPEP137] | 0.6634 | 0.7725 | 1,0777 | 1,0904 | 1,189 | 0,9326 | 1,1347 | 1,0155 | 1.2267 | 1.181 |  |  |  |  |  |
| CPEP71: viral library peptide from HIV1 Integrase, targets IPO7 (WKGPAKLLWKG) |  |  | 0,1137 | 0,7606 | 1,0288 | 1,0227 | 0,9266 | 0,9918 |  | 1.748 | 0.4108 | 1.077 | 2.918 | more than 2 fold |  |
| WRHRAR [CPEP113] |  |  | 0,9723 | 0,965 | 0,979 | 0,9338 | 0,9116 | 1,0465 |  | 0.358 | 0.1192 | 0.4362 | 1.761 |  | most |
| TGERDW [CPEP119] |  |  | 0,8047 | 0,8876 | 0,8371 | 0,7125 | 0,8133 | 0,8609 |  | 1.661 | 0.3105 | 0.9503 | 0.6578 |  |  |
